Source: patent US20220273683A1, “BORON-CONTAINING SMALL MOLECULES” (Bill & Melinda Gates Foundation, priority 2016, published 2022)

Assays:
[1] = system: Streptococcus pneumoniae (ATCC 49619); assay: Antibacterial MIC assay (microbroth dilution, CLSI); format: cell-based; conditions: 3% lysed horse blood, 35° C., 16-20 hours
Source text: (§1) All MIC testing of bacteria followed the Clinical and Laboratory Standards Institute (CLSI) guidelines for antimicrobial testing of aerobic bacteria (Methods for Dilution Antimicrobial Susceptibility Tests for Bacteria that Grow Aerobically; Approved Standard—Tenth Edition, M07-A10; Performance Standards for Antimicrobial Susceptibility Testing; Twenty-fifth Informational Supplement, M100-S25).
(§2) Briefly, the microbroth dilution MIC method was used to quantitatively measure the in vitro antibacterial activity of a compound against a given bacterial isolate. The following bacterial strains were evaluated: Staphylococcus aureus, MRSA (ATCC 33591) and Streptococcus pneumoniae (ATCC 49619). Bacteria were grown in cation-adjusted Mueller-Hinton broth, with additions as required per species growth requirements (e.g. 3% lysed horse blood for fastidious organisms such as S. pneumoniae). A direct colony suspension in saline was prepared from colonies on an overnight agar plate to achieve a turbidity equivalent to 0.5 McFarland standard, which was subsequently diluted into the assay plate to achieve 5×10^5 CFU/mL. Assays plates were prepared by 2-fold dilution of compound across the plate and included a positive growth control.

[2] = system: Staphylococcus aureus, MRSA (ATCC 33591); assay: as above; format: cell-based; conditions: 35° C., 16-20 hours
Source text: as §1, §2

| Structure (SMILES) | MIC Streptococcus pneumoniae (ATCC 49619) [1] | MIC Staphylococcus aureus, MRSA (ATCC 33591) [2] |
| --- | --- | --- |
| C#CC[C@]1(C)C[C@@H](OC(=O)COc2ccc3c(c2F)B(O)OC3)[C@]2(C)[C@H](C)CC[C@]3(CCC(=O)[C@H]32)[C@@H](C)[C@@H]1O [Compound 22, (3aR,4R,5R,7R,8S,9R,9aS,12R)-8-hydroxy-4,7,9,12-tetramethyl-3-oxo-7-(prop-2-yn-1-yl)decahydro-4,9a-propanocyclopenta[8]annulen-5-yl2-((7-fluoro-1-hydroxy-1,3-dihydrobenzo[c][1,2]oxaborol-6-yl)oxy)acetate] | B (0.5-2 is B) | A (MIC of ≤0.25 is A) |
| C[C@@H]1CC[C@@]23CCC(=O)[C@H]2[C@]1(C)[C@H](OC(=O)COc1ccc2c(c1F)B(O)OC2)C[C@@](C)(CO)[C@@H](O)[C@@H]3C [Compound 23, (3aR,4R,5R,7S,8S,9R,9aS,12R)-8-hydroxy-7-(hydroxymethyl)-4,7,9,12-tetramethyl-3-oxodecahydro-4,9a-propanocyclopenta[8]annulen-5-yl2-((7-fluoro-1-hydroxy-1,3-dihydrobenzo[c][1,2]oxaborol-6-yl)oxy)acetate] | C (4-32 is C) | A (MIC of ≤0.25 is A) |
| COC[C@]1(C)C[C@@H](OC(=O)COc2ccc3c(c2F)B(O)OC3)[C@]2(C)[C@H](C)CC[C@]3(CCC(=O)[C@H]32)[C@@H](C)[C@@H]1O [Compound 24, (3aR,4R,5R,7S,8S,9R,9aS,12R)-8-hydroxy-7-(methoxymethyl)-4,7,9,12-tetramethyl-3-oxodecahydro-4,9a-propanocyclopenta[8]annulen-5-yl2-((7-fluoro-1-hydroxy-1,3-dihydrobenzo[c][1,2]oxaborol-6-yl)oxy)acetate] | C (4-32 is C) | A (MIC of ≤0.25 is A) |

Further lines, results first:

| MIC Streptococcus pneumoniae (ATCC 49619) [1] | MIC Staphylococcus aureus, MRSA (ATCC 33591) [2] | Structure (SMILES) |
| --- | --- | --- |
| C (4-32 is C) | B (0.5-2 is B) | C[C@@H]1CC[C@@]23CCC(=O)[C@H]2[C@]1(C)[C@H](OC(=O)COc1ccc2c(c1F)B(O)OC2)C[C@@](C)(CCO)[C@@H](O)[C@@H]3C [Compound 25, (3aR,4R,5R,7R,8S,9R,9aS,12R)-8-hydroxy-7-(2-hydroxyethyl)-4,7,9,12-tetramethyl-3-oxodecahydro-4,9a-propanocyclopenta[8]annulen-5-yl2-((7-fluoro-1-hydroxy-1,3-dihydrobenzo[c][1,2]oxaborol-6-yl)oxy)acetate] |
| C (4-32 is C) | A (MIC of ≤0.25 is A) | COCC[C@]1(C)C[C@@H](OC(=O)COc2ccc3c(c2F)B(O)OC3)[C@]2(C)[C@H](C)CC[C@]3(CCC(=O)[C@H]32)[C@@H](C)[C@@H]1O [Compound 26, (3aR,4R,5R,7R,8S,9R,9aS,12R)-8-hydroxy-7-(2-methoxyethyl)-4,7,9,12-tetramethyl-3-oxodecahydro-4,9a-propanocyclopenta[8]annulen-5-yl2-((7-fluoro-1-hydroxy-1,3-dihydrobenzo[c][1,2]oxaborol-6-yl)oxy)acetate] |
| B (0.5-2 is B) | A (MIC of ≤0.25 is A) | C[C@@H]1CC[C@@]23CCC(=O)[C@H]2[C@]1(C)[C@H](OC(=O)COc1ccc2c(c1F)B(O)OC2)C[C@@](C)([C@@H]1CO1)[C@@H](O)[C@@H]3C [Compound 27, (3aR,4R,5R,7R,8S,9R,9aS,12R)-8-hydroxy-4,7,9,12-tetramethyl-7-((R)-oxiran-2-yl)-3-oxodecahydro-4,9a-propanocyclopenta[8]annulen-5-yl2-((7-fluoro-1-hydroxy-1,3-dihydrobenzo[c][1,2]oxaborol-6-yl)oxy)acetate] |
